Reference: patent US20050033056A1, “Hydroxylated indole derivatives and uses thereof” (priority 2001, published 2005)

Tests used:
[1] = system: pooled human liver microsomal preparations (HLM); test: Compound 1 metabolism / metabolite formation in reconstituted system with pooled HLM; type: in vitro ADME; settings: estimated by UV absorbance at 270 nm, metabolite formed or Compound 1 left after 1 hour with NADPH
Method: (§1) The metabolism of Compound 1 was determined by the disappearance of Compound 1 or the appearance of Compound 1 metabolites in reaction mixtures as compared to respective controls. Compound 1 was incubated in the reconstituted in vitro reaction systems containing pooled human liver S9 fractions, microsomal preparations, or recombinant hepatic CYP forms, including CYP1A2, CYP2C9, CYP2C19, CYP2D6, CYP2E1, and CYP3A4. The reaction mixture (total volume of 250 μL) contained 0.5 mg of liver microsomal protein, 50 or 25 pmol of recombinant CYP, and Compound 1 (50-80 μM) in 50 mM Tris buffer containing 15 mM MgCl2 (pH 7.4). After incubating at 37° C. with gentle shaking for 1 minute, the reaction was initiated by adding 25 μL of NADPH solution (20 mg/mL), and was carried out for 1 hour. The reaction was terminated by quickly cooling the test tube on ice, followed by the addition of an equal volume of 100% methanol. The samples were centrifuged in a desktop centrifuge at 14,000 rpm for 5 minutes, and the supernatants were filtered through syringe filters (13 mm, 0.45 μm). The filtrates were subjected to analysis using LC/MS (ion trap) or LC/MS/MS.
1. […] The detector was monitored at 270 nm, which is the UVmax of Compound 1 predetermined by scanning between 225-400 nm using a photodiode array detector (PDA). […]

CYP2C19 = CYP2C19 (Homo sapiens, UniProt P33261); test: Compound 1 metabolism / metabolite formation by recombinant CYP2C19; type: in vitro ADME; parameters: purchased Gentest Corp. (Woburn, Mass.); host or cells: insect cells (microsomal preparation)
Chain of CYP2C19 (P33261 whole entry): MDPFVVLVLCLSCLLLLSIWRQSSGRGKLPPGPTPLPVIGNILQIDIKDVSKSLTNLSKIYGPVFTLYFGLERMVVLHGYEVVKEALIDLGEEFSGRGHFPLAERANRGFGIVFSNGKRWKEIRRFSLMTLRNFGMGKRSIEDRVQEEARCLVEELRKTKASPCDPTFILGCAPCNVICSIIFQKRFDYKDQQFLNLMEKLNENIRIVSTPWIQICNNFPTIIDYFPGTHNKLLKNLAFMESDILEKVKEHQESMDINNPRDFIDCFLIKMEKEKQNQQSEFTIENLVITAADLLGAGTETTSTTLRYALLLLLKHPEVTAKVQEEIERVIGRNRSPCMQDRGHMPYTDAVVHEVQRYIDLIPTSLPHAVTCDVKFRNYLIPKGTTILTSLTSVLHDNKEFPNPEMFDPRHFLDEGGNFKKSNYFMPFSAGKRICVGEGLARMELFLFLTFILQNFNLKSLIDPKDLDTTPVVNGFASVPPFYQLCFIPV
Method: as §1
(§2) 1. LC/MS (LCQ ion trap mass spectrometer, Finnigan Corp., San Jose, Calif.): Hewlett Packard 1100 HPLC system (Waldbronn, Germany) consisted of a binary pump, an autosampler, a column compartment unit, and an online variable wavelength UV detector (VWD). The detector was monitored at 270 nm, which is the UVmax of Compound 1 predetermined by scanning between 225-400 nm using a photodiode array detector (PDA). The metabolites were separated on a Hewlett Packard Eclipse C18 column (150×2.1 mm). The mobile phases were 10 nmM ammonium acetate at pH 4.8 (A) and acetonitrile (B). The gradient (B) was 10% (0-6 minutes), 22% (12-22 minutes), 90% (25-30 minutes), and 10% (31 minutes and after). The flow rate was 0.25 mL/minute. Software Navigator (Version 1.2, Finnigan Corp.) was used to control the HPLC and MS and to acquire the data. The MS was operated at positive electrospray ionization (ESI) with 5.2 kV ionization potential and 220° C. heated capillary temperature. The product ion spectra were generated under 24V collision energy, which was optimized for the fragmentation of Compound 1.
2. LC/MS/MS (SCIEX API2000 triple quadrupole mass spectrometer, PE Biosystem, Foster City, Calif.): The same HPLC system described above was coupled with a tandem mass spectrometer. The metabolites were separated on a Sulpelco Discovery C18 column (150×2.1 mm), and the mobile phase described previously was run at 1.0 mL/min with a 1:10 split. The gradient (B) was 20% (0-6 minutes), 60% (14-18 minutes), 95% (20-24 minutes), and 20% (25 minutes and after). The operation of the HPLC and the MS/MS was controlled by MacChrom (Version 1.6, PE Biosystem). […]

CYP2D6 = CYP2D6 (Homo sapiens, UniProt P10635); test: Compound 1 metabolism / metabolite formation by recombinant CYP2D6; type: in vitro ADME; parameters: purchased Gentest Corp. (Woburn, Mass.); host or cells: insect cells (microsomal preparation); settings: recombinant CYP2D6, NADPH
Chain of CYP2D6 (P10635 whole entry): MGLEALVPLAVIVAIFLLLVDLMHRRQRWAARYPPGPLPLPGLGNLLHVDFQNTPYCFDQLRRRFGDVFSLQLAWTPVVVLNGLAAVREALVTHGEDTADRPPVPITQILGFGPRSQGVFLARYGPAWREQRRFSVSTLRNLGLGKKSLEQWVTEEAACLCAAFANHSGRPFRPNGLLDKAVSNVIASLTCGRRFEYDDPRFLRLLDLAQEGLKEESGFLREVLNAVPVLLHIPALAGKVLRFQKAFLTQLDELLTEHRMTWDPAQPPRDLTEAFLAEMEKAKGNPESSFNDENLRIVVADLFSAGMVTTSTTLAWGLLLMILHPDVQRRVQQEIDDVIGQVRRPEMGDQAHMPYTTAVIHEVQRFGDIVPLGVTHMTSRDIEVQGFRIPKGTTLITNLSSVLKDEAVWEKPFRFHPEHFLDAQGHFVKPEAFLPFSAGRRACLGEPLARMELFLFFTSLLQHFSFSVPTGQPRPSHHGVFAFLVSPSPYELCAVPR
Method: as §1
as §2, with “The MS was operated at positive electrospray ionization (ESI) with 5.2 kV ionization potential and 220° C. heated capillary temperature. The product ion spectra were generated under 24V collision energy, which was optimized for the fragmentation of Compound 1.” left out

CYP3A4 = CYP3A4 (Homo sapiens, UniProt P08684); test: Compound 1 metabolism / metabolite formation by recombinant CYP3A4; type: in vitro ADME; parameters: purchased Gentest Corp. (Woburn, Mass.); host or cells: insect cells (microsomal preparation); settings: recombinant CYP3A4; estimated by UV absorbance at 270 nm; metabolite formed or Compound 1 left after 1 hour with NADPH
Chain of CYP3A4 (P08684 whole entry): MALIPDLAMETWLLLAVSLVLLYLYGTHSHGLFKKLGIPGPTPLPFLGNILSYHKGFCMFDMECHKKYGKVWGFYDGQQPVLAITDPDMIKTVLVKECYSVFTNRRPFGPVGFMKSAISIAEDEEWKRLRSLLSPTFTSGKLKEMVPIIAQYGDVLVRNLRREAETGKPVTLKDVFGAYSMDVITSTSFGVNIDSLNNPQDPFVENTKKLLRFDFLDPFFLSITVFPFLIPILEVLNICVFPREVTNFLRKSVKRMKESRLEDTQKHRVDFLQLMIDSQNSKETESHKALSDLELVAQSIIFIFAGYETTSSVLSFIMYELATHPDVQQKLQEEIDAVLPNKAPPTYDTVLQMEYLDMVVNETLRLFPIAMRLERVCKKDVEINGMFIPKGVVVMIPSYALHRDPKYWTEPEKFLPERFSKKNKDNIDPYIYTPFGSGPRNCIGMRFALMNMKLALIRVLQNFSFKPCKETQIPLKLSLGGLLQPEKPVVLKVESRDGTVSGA
Method: as §1
as §2, with “The MS was operated at positive electrospray ionization (ESI) with 5.2 kV ionization potential and 220° C. heated capillary temperature. The product ion spectra were generated under 24V collision energy, which was optimized for the fragmentation of Compound 1.” left out

CYP1A1/2 = test: CYP induction in primary human hepatocytes, Western immunoblotting: CYP1A1/2; type: cell-based; settings: TCDD 0.4 μM, 72 hours
Method: Upon receiving a primary culture of human hepatocytes in 6-well plates, the culture medium containing streptomycin/penicillin was refreshed (2 ml/well). […] Compound 1 stock solution was added to the culture medium at a 1:400 ratio (v/v). The culture medium and testing compounds were replenished every 24 hours.
At the end of the treatment, the cells were harvested into 1 mL of phosphate-buffered saline (PBS) after washing twice. The cells were precipitated by centrifugation, and were resuspended in PBS (approximately 50 μL). The sample preparation, after mixing with […] of Laemmli buffer (62.5 mM Tris-HCl containing 2% SDS, 25% glycerol, and 0.01% bromophenol, pH 6.8) and being rocked for 2-4 hours, was mixed with 10 μL of 2-mercaptoethanol, and heated at 90° C. for 10 minutes before electrophoresis.
Proteins were resolved in a 12% SDS-PAGE gel using a mini gel apparatus at a constant voltage ([…]) for 70-80 minutes, and transferred onto a polyvinylidene difluoride (PVDF) membrane using a membrane-transferring unit at a constant voltage ([…]) for 60 minutes. The membrane was blocked by 5% non-fat dried milk (NFDM) blotting buffer (PBS containing 0.05% Tween 20) at 4° C. overnight. […] CYP proteins were detected by […] using an X-ray developer.

SMILES	Rel. Amount (%) [1] [%]	formation of the metabolite from Compound 1 by CYP2C19 (in words) (CYP2C19; recombinant CYP2C19, NADPH)	Rel. Amount (%) (CYP2C19; recombinant CYP2C19, estimated by UV absorbance at 270 nm, metabolite formed or Compound 1 left after 1 hour with NADPH)	formation of the metabolite from Compound 1 by CYP2D6 (in words) (CYP2D6)	Rel. Amount (%) (CYP3A4)	expression of CYP1A1/2 (Western immunoblotting), positive control (CYP1A1/2)
CNC(=O)Cc1ccc2ccn(C3CCNCC3)c2c1 [Compound M4]	21	formed	20	formed	31	–
Clc1cc2c(cc1Cl)Oc1cc(Cl)c(Cl)cc1O2 [TCDD, 2,3,7,8-tetrachlorodibenzo-p-dioxin, reference compound]	–	–	–	–	–	elevated expressions
